Reference: patent publication US11198678B1, “Plakortinic acids A and B: cytotoxic cycloperoxides with a unique bicyclo[4.2.0]octene unit from sponges of the genera Plakortis and Xestospongia” (University of Puerto Rico, priority 2016, dated 2021)

Key:
[1] = tested on: A2058 melanoma cells; assay: MTS cell viability (cytotoxicity) assay, A2058 melanoma cells; format: cell-based, human; conditions: 48 h treatment
Method: (§1) DU-145 human prostate cancer and A2058 melanoma cell lines were obtained from ATCC. These cells were cultured in RPMI-1640 or DMEM medium containing 10% fetal bovine serum (FBS), 100 units/mL penicillin, and 100 μg/mL streptomycin. All cells were maintained in a 5% CO2 atmosphere at 37° C. To determine the viability of the cells, Promega CellTiter 96 aqueous nonradioactive cell proliferation assays (MTS) were performed as described by the supplier (Promega; Madison, Wis.). Briefly, cells (5000/well) were seeded in 96-well plates and incubated overnight at 37° C. in 5% CO2. Cells were treated for 48 h with each compound. The concentration used was 10 μM. Dimethyl sulfoxide (DMSO) was used as the vehicle control. IC50 values of compounds were determined in a dose-dependent manner (0.1, 0.5, 1, 5, 10, 20, and 50 μM). Cell viability was determined by tetrazolium conversion to its formazan dye, and absorbance of formazan was measured at 490 nm using an automated ELISA plate reader. The production of formazan dye was directly proportional to the number of living cells. Each experiment was done in quadruplicate in the absence of a positive control.

[2] = tested on: DU-145 human prostate cancer cells; assay: MTS cell viability (cytotoxicity) assay, DU-145 prostate cancer cells; format: cell-based; conditions: 48 h treatment
Method: as §1

Substance | IC50 [1] [nM] | IC50 [2] [nM]
plakortinic acid A [compound 2] | 300 | 500
plakortinic acid B methyl ester [compound 4] | 4700 | 5900
